# “And” between values parts separate entries of the source, which are not always exact repeats. Equal entries are not always repeated. Where two headings read alike, the source gives them in different places.
# Tests used:
# Solubility in water = type: physicochemical; conditions: 24 °C, room temperature (22-26° C.)
# [1] = Pharmacokinetic study after unilateral transtympanic administration (plasma, inner ear, perilymph, brain); type: in vivo, female Sprague Dawley rats; conditions: rat; for concentration at 14 days: 14 days after administration; for ACOU085 plasma concentration / ACOU085 brain concentration: 6% thermo-reversible formulation 1.2 mg/animal unilateral transtympanic
# Procedure: Eighteen female Sprague Dawley rats entered a pharmacokinetic study, to determine the distribution of a 6% thermo-reversible ACOU085 formulation at a dose of 1.2 mg/animal after unilateral transtympanic administration in peripheral plasma, inner ear, perilymph, brain and CSF.
# 4, 24, 48, 96, 168 and 336 h after dosing n=3 rats out of every group were euthanized with carbon dioxide, peripheral and final blood samples and brain were taken and inner ears were dissected to analyze ACOU085 concentrations. Body weight was assessed on the day 1-4, on day 7 and day 14. Animals were checked for any clinical signs associated with toxicity of the test substance.
# [2] = Viscosity test: temperature-induced rise in viscosity; type: physicochemical; conditions: 15% poloxamer 407 gel with 2% API vs without
# Procedure: The viscosity normally is measured with a viscometer, in particular a rheometer. A rheometer usually is a laboratory device measuring flow characteristics of a liquid, suspension or slurry in response to applied forces. A common device type is a so called shear rheometer, in which a shear stress is applied to the corresponding material. Devices which can be used to measure the viscosity of the aqueous gel compositions according to the invention are rheometers from Brookfield (AMETEK Brookfield). […]
# Note: Maximal Viscosity is Identical for all Formulations (Due to the Test Method)
# [3] = 6% thermo-reversible formulation 1.2 mg/animal transtympanic
solubility (Solubility in water) [µg/mL],"concentration at 336 h ([1]; female, Sprague Dawley, other: transtympanic, perilymph, 6% formulation 1.2 mg/animal unilateral transtympanic, Left side, 336 h, animals 1-3, read-out: Uptake of ACOU085 into the perilymph: ACOU085 inner ear concentration) [nM]","concentration at 14 days ([1]; female, Sprague Dawley, brain, other: transtympanic, 1.2 mg/animal, read-out: brain concentration (average)) [nM]","concentration at 4 h ([1]; female, Sprague Dawley, inner ear, left side, other: transtympanic, 1.2 mg/animal, 6% formulation 1.2 mg/animal unilateral transtympanic, Left side, 4 h, animals 1-3, read-out: ACOU085 inner ear concentration) [nM]","concentration at 14 days ([1]; female, Sprague Dawley, plasma, other: transtympanic, 1.2 mg/animal, read-out: plasma concentration (average)) [nM]","concentration at 7 days ([1]; female, Sprague Dawley, plasma, other: transtympanic, 1.2 mg/animal, after 7 days) [nM]","ACOU085 inner ear concentration ([1]; 6% formulation 1.2 mg/animal unilateral transtympanic, Left side, 4 h, animals 1-3)","maximal average concentration in brain [1, 3] [nmol/L]","maximal average concentration in plasma [1, 3] [nmol/L]","ACOU085 plasma concentration ([1]; 4 h (printed 4 11), animals 1-3)","ACOU085 brain concentration ([1]; 48 h, animals 1-3)","ACOU085 plasma concentration ([1]; 48 h, animals 1-3)","ACOU085 brain concentration ([1]; 96 h, animals 1-3)","ACOU085 plasma concentration ([1]; 96 h, animals 1-3)",time of peak brain concentration ([1]; after injection) [h],"Uptake of ACOU085 into the perilymph: ACOU085 inner ear concentration ([1]; perilymph, 6% formulation 1.2 mg/animal unilateral transtympanic, Left side, 336 h, animals 1-3)",effect of API on the viscosity-temperature relation of the formulation [2],SMILES,uptake into the brain and into the plasma ([1]; compared with inner ear tissue and perilymph)
< 1000,,,,,,,,,,,,,,,,,"O=C(NCc1cccc(S(F)(F)(F)(F)F)c1)[C@H]1C[C@@H]2CC[C@H]1C2 (racemic) [Compound A, (1SR,2SR,4RS)—N-(3-(pentafluoro-λ6-sulfanyl)benzyl) bicyclo[2.2.1]heptane-2-carboxamide]",
< 1000,4,8,55,4,26,82 nmol/L and 93 nmol/L,82,45,9 nnmol/L and 6 nnmol/L and 12 nnmol/L,38 nnmol/L and 53 nnmol/L and 76 nnmol/L,12 nnmol/L and 18 nnmol/L and 16 nnmol/L,94 nnmol/L and 52 nnmol/L and 68 nnmol/L,48 nnmol/L and 26 nnmol/L and 33 nnmol/L,96,3 nmol/L and 2 nmol/L,no effect,"O=C(NCc1cccc(S(F)(F)(F)(F)F)c1)[C@H]1C[C@@H]2CC[C@H]1C2 [ACOU085, (1S,2S,4R)—N-(3-(pentafluorosulfanyl)benzyl) bicyclo[2.2.1]heptane-2-carboxamide]",low in comparison to the inner ear tissue and perilymph

# — patent publication US20260083669A1, “AQUEOUS GEL COMPOSITION” (Acousia Therapeutics GmbH, priority 2022, published 2026)
